The term Km denotes the concentration of substrate that gives half-maximal velocity.

Consider 3 molecules from patent US9096825B2, “7 α-hydroxysteroid dehydrogenase knockout mutants and use therefor” (Pharmazell GmbH, priority 2010, dated 2015).

The target of data set [1] is T1, 7β-HSDH obtainable from Collinsella aerofaciens DSM 3979 (Collinsella aerofaciens, UniProt A4ECA9).
T1 sequence (A4ECA9 1-263): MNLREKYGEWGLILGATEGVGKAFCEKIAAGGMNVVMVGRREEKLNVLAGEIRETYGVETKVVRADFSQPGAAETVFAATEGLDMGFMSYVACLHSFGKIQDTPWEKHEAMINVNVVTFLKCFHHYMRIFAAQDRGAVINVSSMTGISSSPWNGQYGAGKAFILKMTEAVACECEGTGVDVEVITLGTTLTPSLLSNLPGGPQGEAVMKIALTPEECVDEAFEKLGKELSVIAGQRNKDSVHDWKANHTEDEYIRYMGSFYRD
Briefly: Kinetic parameters of 7β-HSDH for substrates/cofactors.

Another data set has as its system E. coli BL21(DE3). Briefly: Incubation of cholic acid with E. coli culture, HPLC detection of the oxidation product. The class given is cell-based. Conditions: 20 mM cholic acid added to 5 ml of culture.
For data set [2], the system named is E. coli BL21(DE3) Δ7α-HSDH. Briefly: Incubation of cholic acid with knockout strain culture, HPLC detection of the oxidation product. The class given is cell-based. The note with it: 20 mM cholic acid added to 5 ml of culture.
Substrate in data set [3]: C[C@H](CCC(=O)O)[C@H]1CC[C@H]2[C@@H]3[C@@H](O)C[C@@H]4C[C@H](O)CC[C@]4(C)[C@H]3CC[C@]12C
Briefly: purified protein, by the assay type. The note with it: other: substrate/cofactor of 7β-HSDH.

Substrate in data set [4]: C[C@H](CCC(=O)O)[C@H]1CC[C@H]2[C@@H]3C(=O)C[C@@H]4CC(=O)CC[C@]4(C)[C@H]3CC(=O)[C@]12C
Briefly: purified protein, by the assay type. Conditions: other: substrate/cofactor of 7β-HSDH.

Regarding `C[C@H](CCC(=O)O)[C@H]1CC[C@H]2[C@@H]3C(=O)C[C@@H]4C[C@H](O)CC[C@]4(C)[C@H]3CC[C@]12C` [7-keto-LCA, 7-Ketolithocholic acid], the kcat in data set [1] was 950.77 1 μmol/(μmol × min). Moreover, the Vmax in data set [1] (1 U = 1 μmol/min) stood at 30.77 U/mg protein.

Turning to `C[C@H](CCC(=O)O)[C@H]1CC[C@H]2[C@@H]3[C@H](O)C[C@@H]4C[C@H](O)CC[C@]4(C)[C@H]3C[C@H](O)[C@]12C` [cholic acid, Cholic acid], the “7α-HSDH activity against cholic acid (oxidation to 7-keto-3,12-dihydroxycholanic acid)” value in the data set on E. coli BL21(DE3) is “clearly showed 7α-HSDH activity”. For the same molecule, the “oxidation product 7-keto-3,12-dihydroxycholanic acid detected by HPLC” value in data set [2] is “No oxidation product”.

B1: 7β-HSDH obtainable from Collinsella aerofaciens DSM 3979 (Collinsella aerofaciens ATCC 25986) (protein)
chain: MNLREKYGEWGLILGATEGVGKAFCEKIAAGGMNVVMVGRREEKLNVLAGEIRETYGVETKVVRADFSQPGAAETVFAATEGLDMGFMSYVACLHSFGKIQDTPWEKHEAMINVNVVTFLKCFHHYMRIFAAQDRGAVINVSSMTGISSSPWNGQYGAGKAFILKMTEAVACECEGTGVDVEVITLGTTLTPSLLSNLPGGPQGEAVMKIALTPEECVDEAFEKLGKELSVIAGQRNKDSVHDWKANHTEDEYIRYMGSFYRD
On to B1, for which, in data set [3], the Michaelis-Menten constant (Km) turned out to be 6.23 µM and the Vmax came to 38.2 µmol/min/mg. Besides, in data set [4], the Michaelis-Menten constant (Km) is 9.23 µM and the Vmax was 28.3 µmol/min/mg.
